For assay [1], the target named is T1, α-amylase derived from pancreas of pig (Sus scrofa, UniProt P00690).
T1 construct: the α-amylase derived from pancreas of pig; from tissue; host or cells: pig pancreas
T1 sequence (P00690 16-511): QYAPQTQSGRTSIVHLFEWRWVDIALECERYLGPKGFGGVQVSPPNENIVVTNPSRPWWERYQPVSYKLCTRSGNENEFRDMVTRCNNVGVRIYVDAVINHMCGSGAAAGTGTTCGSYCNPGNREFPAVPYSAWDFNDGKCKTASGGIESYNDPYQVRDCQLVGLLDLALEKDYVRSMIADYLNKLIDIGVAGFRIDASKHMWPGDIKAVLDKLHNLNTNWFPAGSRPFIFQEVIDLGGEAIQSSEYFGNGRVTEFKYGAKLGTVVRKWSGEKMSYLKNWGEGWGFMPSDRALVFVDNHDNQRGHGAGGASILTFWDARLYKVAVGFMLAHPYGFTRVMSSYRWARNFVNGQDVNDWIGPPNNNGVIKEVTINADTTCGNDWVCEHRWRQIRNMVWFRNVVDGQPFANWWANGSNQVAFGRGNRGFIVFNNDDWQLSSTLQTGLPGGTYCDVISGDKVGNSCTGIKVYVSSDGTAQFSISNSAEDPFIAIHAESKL
Put plainly: Inhibitory activity against α-amylase derived from pancreas of pig (same method). The format is biochemical.

Assay [2] addresses α-glucosidase (acetone powder in the intestinal canal of rat). Put plainly: α-glucosidase inhibitory activity (4-methylumbelliferyl-α-D-glucoside, fluorometry). The format is biochemical. The method, then: Next, α-glucosidase inhibitory activity (%) in regard to the embodiment 1 (evening primrose seed extract) was identified by the following method. As for the α-glucosidase for this measurement, 0.1 mol maleic acid buffer solution (pH 6.0) was added to the acetone powder in the intestinal canal of rat (SIGMA CHEMICAL CO.) and homogenized in ice by using a glass homogenizer, and then centrifugalized supernatant was diluted 20 times. Measuring method is shown below. […] After that, the reaction was suspended by adding 3 ml glycin buffer solution (pH 10.3) and the quantity of the isolated 4-methylumbelliferyl was determined by using a fluorometer (excitation wavelength: 366 nm & fluorescent wavelength: […]). Enzyme activity was calculated based on this determined value and inhibitory activity (%) was calculated by the following formula. […] Inhibitory activity (%)=100−Enzyme activity (%)

pIC50: −log10 of the molar value. Values after ≈ are worked out from the molar mass of the structure shown. Read-outs that look alike come from different tables or passages of the source. Bounds are passed on as bounds.

The term pIC50 denotes −log10 of the IC50, conventionally taken in molar units. Consider `O=C(O)c1cc(O)c(O)c(O)c1` [Gallic acid], for which the pIC50 in assay [1] is 2.63. Further, the “IC50 (50% inhibitory concentration) against α-glucosidase” value in assay [2] was 800 µg/mL (≈ 4700 µM).
As for `O=c1oc2c(O)c(O)cc3c(=O)oc4c(O)c(O)cc1c4c23` [Ellagic acid], the “IC50 (50% inhibitory concentration) against α-glucosidase” value in assay [2] was above 80 µg/mL.
Same read-out and setting: in the case of Catechin it was 800 µg/mL.
Usually IC50 stands for the concentration that inhibits the measured activity by half. For the molecule `O=C(OC[C@H]1O[C@@H](OC(=O)c2cc(O)c(O)c(O)c2)[C@H](OC(=O)c2cc(O)c(O)c(O)c2)[C@@H](OC(=O)c2cc(O)c(O)c(O)c2)[C@@H]1OC(=O)c1cc(O)c(O)c(O)c1)c1cc(O)c(O)c(O)c1` [Pentagalloylglucose], the IC50 in assay [1] (read-out: IC50 against the α-amylase derived from pancreas of pig (converted)) was 21.3 µM.

For the origin of these results see US6932990B2, “Carbohydrate absorption inhibitor and method for manufacturing the same” (Oryza Oil & Fat Chemical Co., Ltd., priority 2000, dated 2005).
